Legend:
COX2 (cyclooxygenase 2) = target: T1, COX2 (cyclooxygenase 2) (Rattus norvegicus, UniProt P35355); assay: Pharmacological studies in rats: COX2 inhibition; format: in vivo; conditions: studies conducted in rats
T1 construct: from tissue; host or cells: rat (in vivo pharmacological studies; tissue not given)

[1] = system: guinea-pig isolated ileum; assay: Intestinal motility in isolated ileum, various agonists; conditions: all of the traditional agonists: histamine, acetylcholine, serotonin (fig. 7, 8 and 9)
Description: In parallel we also studied the possible effect on intestinal motility in the guinea-pig isolated ileum (b.r. No. 29) using various agonists (fig. 7, 8 and 9).

Carcinogenesis = Carcinogenesis studies, gavage over life-span; format: in vivo, rat; conditions: gavage for a period covering the animal's life-span
[2] = system: fertility, embriotoxicity and teratogenicity; assay: Fertility, embryotoxicity and teratogenicity studies, rat; format: in vivo
H2 receptors = target: T2, H2 receptors (Cavia porcellus, UniProt P47747); assay: Effect on H2 receptors of isolated atrium, histamine stimulation; conditions: guinea-pig atrium, stimulation by histamine (fig. 5)
T2 construct: an organ in which only H2 receptors were present (guinea-pig atrium); from tissue; host or cells: guinea-pig atrium (isolated organ)
T2 sequence (P47747 whole entry): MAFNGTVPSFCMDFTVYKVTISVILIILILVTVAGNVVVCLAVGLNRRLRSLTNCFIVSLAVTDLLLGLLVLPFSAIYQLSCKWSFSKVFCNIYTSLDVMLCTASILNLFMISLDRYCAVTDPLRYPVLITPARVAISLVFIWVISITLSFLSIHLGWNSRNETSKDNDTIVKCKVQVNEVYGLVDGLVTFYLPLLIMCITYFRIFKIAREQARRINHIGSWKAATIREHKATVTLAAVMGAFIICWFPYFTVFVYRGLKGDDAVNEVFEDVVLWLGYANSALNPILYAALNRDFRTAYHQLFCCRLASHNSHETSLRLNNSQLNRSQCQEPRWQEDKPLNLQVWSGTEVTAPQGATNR
Description: On the basis of the above series of observations, we decided to study the pharmacological behaviour of a number of widely used NSAIDs (including amtolmetin guacyl) towards the gastric mucosa in the rat, as previously described. […] The first hypothesis was that we were deling with an anti-H2 drug, given the fact that its potency could be compared with that of cimetidine.

Adjuvant arthritis = assay: Adjuvant arthritis: joint inflammation and patellar bone erosion; format: in vivo, rats; conditions: patellar bone mass; MED 15 25, 50, 100mg/kg, piroxicam 3mg/kg
Protocol: The drugs were administered daily by oral gavage for 4 days (day 0-3); piroxicam and MED 15 were dissolved in 5% Gum arabic + 0.01% Tween 80, and administered in a volume of 0.5ml. Piroxicam was administered as 3mg/kg and MED 15 was administered as 25, 50 and 100mg/kg doses. Table 8 bis illustrating dosage regimes. L=left stifle joint, R=Right stifle joint.
Under halothane anaesthesia, rats received 200µg of heat-killed finely ground Mycobactyerium tubercolosis in 25µl (80mg/10ml sterile saline) injected intra-articulary into the left stifle joint. The contralateral joint received 25µl 0.9% sterile saline. Control animals received 25µl of 0.9% sterile saline in both knees. SGE 50µl microsyringes with a volume lock calibrated at 25µl were used with 30G stainless steel needles. Solutions were prepared sterile, and aseptic technique was used throughout, with sterilisation of syringes between groups.
The rats were killed by carbon dioxide suffocation. The body weight was noted and the skin overlying the stifle joints was divided and the joint diameters assessed in mm using Mitutoyo vernier callipers (530-312, 0.02mm).
The patellae were dissected, weighed (Sartorius, 0.01mg) and then immersed in 1ml digestion buffer (see below) to remove soft tissue.
Digestive buffer was prepared fresh to the following formula; disodium hydrogen orthophosphate 20mM, EDTA 1mM and diothiothreitol at 2mM. […]

post-operative pain = assay: Clinical trials: analgesic properties in post-operative pain; format: in vivo, man; set-up: key to Antiphlogistic activity evaluation: excellent ^++++; good ^+++; poor ^++
Protocol: As reported in Table 14, the analgesic properties of amtolmetin guacyl were tested in postoperative pain with good results. […] The peak effect is obtained only after 2 hours, and it is maintained for 6 hours.

gastric mucosa = assay: Histological evaluation of the gastric mucosa by an independent laboratory; conditions: oral gavage: amtolmetin guacyl 50 mg/kg, diclofenac 7.5 mg/kg, tolmetin 66.6 mg/kg
Protocol: In order to obtain a histological evaluation of the results obtained in our laboratories, an independent laboratory was provided with identical samples of the material evaluated by us, under totally blind conditions.
Controls received the vehicle only, also by oral gavage. 4 h after the final administration the animals were killed by ether overdose and the stomachs removed, rinsed in saline and immersed in formalin 4%.

[3] = system: rat isolated stomach strips; assay: Gastric motility in isolated stomach strips, acetylcholine and serotonin as agonists; conditions: acetilcholine and serotonin as agonists (fig. 10, 11 and 12)
rat bone marrow = assay: Micronucleus test; format: in vivo
[4] = in vivo
COX1 (cyclooxygenase 1) = target: T3, COX1 (cyclooxygenase 1) (Rattus norvegicus, UniProt Q63921); assay: Pharmacological studies in rats: COX1 inhibition; format: in vivo; conditions: studies conducted in rats
T3 construct: from tissue; host or cells: rat (in vivo pharmacological studies; tissue not given)
T3 sequence (Q63921 27-602): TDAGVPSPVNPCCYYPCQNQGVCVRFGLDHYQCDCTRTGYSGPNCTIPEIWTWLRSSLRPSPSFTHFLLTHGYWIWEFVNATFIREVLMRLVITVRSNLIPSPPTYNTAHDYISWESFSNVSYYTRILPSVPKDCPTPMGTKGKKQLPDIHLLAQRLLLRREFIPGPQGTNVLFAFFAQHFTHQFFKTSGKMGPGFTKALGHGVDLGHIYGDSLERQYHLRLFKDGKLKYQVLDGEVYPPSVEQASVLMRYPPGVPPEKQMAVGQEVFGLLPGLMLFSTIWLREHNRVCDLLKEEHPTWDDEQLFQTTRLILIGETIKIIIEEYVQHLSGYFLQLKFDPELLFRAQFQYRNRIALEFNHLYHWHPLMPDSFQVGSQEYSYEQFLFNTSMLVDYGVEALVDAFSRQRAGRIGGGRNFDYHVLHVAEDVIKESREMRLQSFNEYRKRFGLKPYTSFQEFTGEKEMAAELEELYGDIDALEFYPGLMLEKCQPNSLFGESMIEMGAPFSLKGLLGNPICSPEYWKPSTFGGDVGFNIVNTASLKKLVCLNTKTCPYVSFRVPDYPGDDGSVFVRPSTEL

basal acid secretion = assay: Basal acid secretion; conditions: amtolmetin guacyl per se
[5] = system: fertility, embriotoxicity and teratogenicity; assay: Fertility, embryotoxicity and teratogenicity studies, rabbit; format: in vivo
[6] = system: isolated, perfused, immature rat stomach; assay: Antisecretive activity in vitro, isolated perfused immature rat stomach; conditions: for Δacid: mean±S.E.
Description: Male Wistar rats, 250±10 g b.w. (Charles River, Calco, Como, Italy), quarantined for five days prior to the beginning of the trial and divided into groups of 3 animals per cage, were used for determination of gastric lesions and of ID50 determination. Immature male Wistar rats, 30-45 g b.w. (Harlan Nossan, Milano) were used for the determination of the antisecretory effect on isolated rat stomach. The guinea-pigs used were the Dunkin Hartley guinea-pigs (Harlan Nossan, Milano, Italy).
At the beginning, the isolated, perfused, immature rat stomach, treated externally with the study product, was used. We preferred to use the isolated stomach in toto rather than strips (B.R. No. 18, 19 and 20) in order not to exclude a section of the stomach (the antrum), unimportant for acid secretion but very important for the secretion of bicarbonates and bioactive peptides (b.r. No. 21, 22). The results were encouraging, since amtolmetin guacyl inhibited acid production stimulated by the three classic agonists (histamine, acetilcholine and gastrin) both using varying doses of agonist or varying doses of amtolmetin guacyl (Table 5).
The results are expressed as mean±S.E.

[7] = system: blood pressure and cardiovascular system; assay: Drug safety trials on blood pressure and cardiovascular system; conditions: rat, in vivo
Description: From a toxicological viewpoint the drug offers an excellent torability profile.

[8] = system: extra-articular rheumatism; assay: Clinical trials: antiphlogistic activity in extra-articular rheumatism; format: in vivo, man; set-up: key: excellent ^++++; good ^+++; poor ^++
Description: In extra-articular rheumatism amtolmetin guacyl was compared with diclofenac, naproxen and piperazine propionate.

[9] = agonist Acetylcholine 10^-3 M, antagonist 10^-4 M
[10] = agonist Gastrin 6x10^-7 M, antagonist 10^-4 M
[11] = agonist Histamine 10^-3 M, antagonist 10^-4 M
[12] = agonist Histamine 10^-4 M, antagonist 10^-4 M
[13] = agonist Histamine 10^-4 M, antagonist 10^-5 M

T1 sequence (P35355 18-604): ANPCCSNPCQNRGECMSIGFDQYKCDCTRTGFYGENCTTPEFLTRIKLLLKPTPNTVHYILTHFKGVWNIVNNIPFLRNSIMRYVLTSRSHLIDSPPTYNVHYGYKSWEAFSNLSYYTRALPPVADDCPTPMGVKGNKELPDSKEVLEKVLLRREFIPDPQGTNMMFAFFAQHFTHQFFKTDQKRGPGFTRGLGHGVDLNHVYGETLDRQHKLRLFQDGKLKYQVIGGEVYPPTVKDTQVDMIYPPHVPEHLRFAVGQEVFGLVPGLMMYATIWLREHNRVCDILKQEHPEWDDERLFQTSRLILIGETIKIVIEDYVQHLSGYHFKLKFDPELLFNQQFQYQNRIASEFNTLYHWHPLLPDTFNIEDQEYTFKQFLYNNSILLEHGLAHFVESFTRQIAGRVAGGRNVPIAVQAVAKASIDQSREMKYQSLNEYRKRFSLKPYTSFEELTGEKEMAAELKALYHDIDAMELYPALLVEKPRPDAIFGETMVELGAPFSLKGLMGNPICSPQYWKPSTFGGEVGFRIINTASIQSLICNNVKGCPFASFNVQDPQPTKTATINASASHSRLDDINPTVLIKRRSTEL

## COc1ccccc1OC(=O)CNC(=O)Cc1ccc(C(=O)c2ccc(C)cc2)n1C [amtolmetin guacyl, 2-methoxyphenyl-1-methyl-5p-methylbenzoylpyrrol-2-acetamido acetate]
COX2 (cyclooxygenase 2)
  inhibition of COX2: inhibition
[1]
  intestinal motility: decrease in motility
Carcinogenesis
  Carcinogenesis: innocuity of the product
[2]
  fertility, embriotoxicity and teratogenicity: demonstrated the safety product
H2 receptors
  interference with the H2 receptors: did not interfere with the H2 receptors
Adjuvant arthritis
  protection against bone loss: dose dependent protective effect
post-operative pain
  Antiphlogistic activity evaluation: ^++++
  time for which the effect is maintained: 6 h
post-operative pain; 1200mg, 100 patients
  Duration: 360 min
  Latency: 30 min
  Max. time effect: 180 min
post-operative pain; following administration
  time at which the antalgic effect is already evaluable: 30 '
Gastric mucosa
  Histology: no histological lesions
Gastric mucosa; single animals
  Macroscopic findings: 0
  Microscopic findings: 0
[3]
  gastric motility: clear evidence of down-regulation of motility
Rat bone marrow
  micronucleus test: absence of amtolmetin guacyl-related damage
[4]
  drug tolerability: excellent drug tolerability
COX1 (cyclooxygenase 1)
  inhibition of COX1: inhibition
Basal acid secretion
  effect on basal acid secretion: fails to modify basal acid secretion
[5]
  fertility, embriotoxicity and teratogenicity: demonstrated the safety product
[6]; [9]
  % inhib.: 21.5%
  Δacid: 71.2 ± 5.4 nmol/min
[6]; [10]
  % inhib.: 52.1%
  Δacid: 30.7 ± 3.7 nmol/min
[6]; [11]
  % inhib.: 57.7%
  Δacid: 17.9 ± 2.1 nmol/min
[6]; [12]
  % inhib.: 62.6%
  Δacid: 19.2 ± 5.4 nmol/min
[6]; [13]
  % inhib.: 68.7%
  Δacid: 16.1 ± 5.4 nmol/min
[7]
  effects on blood pressure and on the cardiovascular system: absence of effects on blood pressure and on the cardiovascular system
[8]
  Antiphlogistic activity evaluation: ^+++

Source: patent publication EP1310250A1, “Use of the compound 2-methoxyphenyl-1-methyl-5P-methylbenzoyl-pyrrol-2-acetamido acetate for the production of an antiinflammatory drug with prevention of gastric hypersecretion and renal impairment” (MEDOSAN Ricerca S.r.l., priority 1997, dated 1999)
